From patent publication US12673052B2, “Combinations for the treatment of cancer” (Exelixis, Inc., priority 2020, dated 2026)
pIC50, pKi: −log10 of the molar value.

Key:
[1] = Liver microsomal stability assay; format: in vitro ADME, dog; details: liver microsomes
Protocol: (§1) In the liver microsomal stability assay, CLint was 0.601 mL/min/g liver in mouse, 0.563 mL/min/g liver in rat, 0.315 mL/min/g liver in dog, 0.734 mL/min/g liver in monkey, and 0.639 mL/min/g liver in human. In the hepatocyte stability assay, Compound 1 CLint was 0.373 mL/min/g liver in mouse, 0.285 mL/min/g liver in rat, 1.08 mL/min/g liver in dog, 0.533 mL/min/g liver in monkey, and 0.317 mL/min/g liver in human.

[2] = Toxicokinetics in 28-day repeat-dose toxicity study; format: in vivo, dogs; details: for half-life: oral
Protocol: In a 28-day repeat-dose toxicity study in dogs dosed orally daily with Compound 1 at 2, 6 and 18 mg/kg, high variability in Compound 1 exposure was generally observed for all dose levels on Days 1 and 28. Across the dose range evaluated, the mean % CV for Cmax and AUC0-24 was 46.2-93.2% and 45.5-91%, respectively, on Day 1 and 39.3-53.9% and 36.2-51.1%, respectively, on Day 28.

MET = MET (Homo sapiens, UniProt P08581); assay: RTK autophosphorylation ELISA, PC-3 cells stimulated with HGF; format: cell-based; design: cell lines (PC-3, HUVEC, and A-172) stimulated with ligands to their respective receptors to induce autophosphorylation (MET, VEGFR2, and AXL); endogenous in cells; host or cells: PC-3; details: MET (PC-3), ligand HGF; read-out: Cellular IC50
Protocol: The activity of Compound 1 was evaluated in cell-based assays that assessed the mechanistic effects of the compound in tumor and normal cells. Consistent with the biochemical data, Compound 1 is a potent inhibitor of cellular RTKs as assessed by analysis of receptor autophosphorylation as measured by enzyme-linked immunosorbent assay. Assays were performed using cell lines (PC-3, HUVEC, and A-172) stimulated with ligands to their respective receptors to induce autophosphorylation (MET, VEGFR2, and AXL) or a cell line (293A) transfected with an expression vector encoding the receptor of interest (MER). Inhibition of endogenous phosphorylated MET by Compound 1 in Hs 746T gastric carcinoma cells was also investigated due to the presence of the skip-splice mutation of exon 14 in the MET gene. This MET exon 14 alteration leads to increased MET stability and oncogenic activation, including constitutive MET phosphorylation. Also this mutation is known to occur in 3% of lung adenocarcinoma patients and to be sensitive to MET-targeted therapies (Frampton et al 2015).

[3] = Repeat-dose toxicity studies (7-day range-finding, definitive 28-day, 14-day recovery); format: in vivo, rats
Protocol: The nonclinical toxicity of Compound 1 was characterized in dose range-finding 7-day and definitive 28-day repeat-dose studies in rats and dogs, and in in vitro bacterial and mammalian genotoxicity bioassays. Compound 1 was also evaluated in definitive neurobehavioral, respiratory and cardiovascular safety pharmacology studies.
Following a 2-week recovery phase, increased physeal thickness and tooth degeneration persisted but were less severe. These findings are consistent with an on-target pharmacologic VEGFR inhibition by Compound 1.
These microscopic lesions were fully reversible following a 14-day recovery period, and were associated with correlative reversible changes in clinical chemistry markers of hepatic function (eg, <2-fold increase in AST and <5-fold increase in ALT at 10 mg/kg/day).

[4] = Liver microsomal stability assay; format: in vitro ADME, mouse; details: liver microsomes
Protocol: as §1

CYP2D6 [5] = target: T1, CYP2D6 (Homo sapiens, UniProt P10635); assay: CYP/UGT substrate specificity (recombinant Supersomes, chemical inhibitors in human liver microsomes); format: in vitro ADME; design: purchased; host or cells: recombinant Supersomes; human liver microsomes
Protocol: (§2) Plasma PK of Compound 1 was characterized in rats and beagle dogs. Toxicokinetic (TK) evaluations of oral Compound 1 were evaluated in repeat-dose studies in rats and dogs. Plasma protein binding was determined in mouse, rat, dog, monkey, and human plasma in vitro. Biotransformation and metabolite profiling of Compound 1 were investigated in vitro using mouse, rat, dog, monkey, and human liver microsomal fractions and hepatocytes and in vivo in rats and dogs. P-glycoprotein (P-gp) and breast cancer resistance protein (BCRP) transporter interaction studies, in vitro experiments evaluating cytochrome P450 (CYP) induction and inhibition by Compound 1, and CYP and glucuronosyltransferase (UGT) substrate specificity studies of Compound 1 were also performed.

CYP2C19 = CYP2C19 (Homo sapiens, UniProt P33261); assay: Cytochrome P450 inhibition in vitro; format: in vitro ADME
Protocol: as §2

CYP2C8 = CYP2C8 (Homo sapiens, UniProt P10632); assay: Cytochrome P450 inhibition in vitro; format: in vitro ADME
Protocol: as §2

CYP2C9 = CYP2C9 (Homo sapiens, UniProt P11712); assay: Cytochrome P450 inhibition in vitro; format: in vitro ADME
Protocol: as §2

CYP 2B6 = CYP 2B6 (Homo sapiens, UniProt P20813); assay: Cytochrome P450 inhibition in vitro; format: in vitro ADME; details: low CYP inhibition potential
Protocol: as §2

CYP2D6 [6] = target: T1, CYP2D6; assay: Cytochrome P450 inhibition in vitro; format: in vitro ADME; details: low CYP inhibition potential
Protocol: as §2

CYP1A2 = CYP1A2 (Homo sapiens, UniProt P05177); assay: Cytochrome P450 inhibition in vitro; format: in vitro ADME; details: low CYP inhibition potential
Protocol: as §2

CYP3A4 = CYP3A4 (Homo sapiens, UniProt P08684); assay: Cytochrome P450 inhibition in vitro; format: in vitro ADME
Protocol: as §2

[7] = 10 mg/kg/day, daily for 4 weeks, reversible

T1 sequence (P10635 whole entry): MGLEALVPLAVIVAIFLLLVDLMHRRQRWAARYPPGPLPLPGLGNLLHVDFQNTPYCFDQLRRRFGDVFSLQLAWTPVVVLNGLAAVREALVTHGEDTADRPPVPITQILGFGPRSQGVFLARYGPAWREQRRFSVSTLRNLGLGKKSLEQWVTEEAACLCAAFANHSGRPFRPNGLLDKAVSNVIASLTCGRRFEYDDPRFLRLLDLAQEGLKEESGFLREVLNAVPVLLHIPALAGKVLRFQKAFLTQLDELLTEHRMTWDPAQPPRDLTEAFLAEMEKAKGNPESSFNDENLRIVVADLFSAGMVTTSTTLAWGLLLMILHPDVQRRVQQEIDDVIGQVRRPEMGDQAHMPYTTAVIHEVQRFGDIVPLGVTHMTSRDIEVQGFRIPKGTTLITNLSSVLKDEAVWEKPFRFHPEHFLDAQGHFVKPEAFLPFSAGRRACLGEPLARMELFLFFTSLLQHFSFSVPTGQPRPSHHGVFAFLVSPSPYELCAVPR
CYP3A4, sequence (P08684 whole entry): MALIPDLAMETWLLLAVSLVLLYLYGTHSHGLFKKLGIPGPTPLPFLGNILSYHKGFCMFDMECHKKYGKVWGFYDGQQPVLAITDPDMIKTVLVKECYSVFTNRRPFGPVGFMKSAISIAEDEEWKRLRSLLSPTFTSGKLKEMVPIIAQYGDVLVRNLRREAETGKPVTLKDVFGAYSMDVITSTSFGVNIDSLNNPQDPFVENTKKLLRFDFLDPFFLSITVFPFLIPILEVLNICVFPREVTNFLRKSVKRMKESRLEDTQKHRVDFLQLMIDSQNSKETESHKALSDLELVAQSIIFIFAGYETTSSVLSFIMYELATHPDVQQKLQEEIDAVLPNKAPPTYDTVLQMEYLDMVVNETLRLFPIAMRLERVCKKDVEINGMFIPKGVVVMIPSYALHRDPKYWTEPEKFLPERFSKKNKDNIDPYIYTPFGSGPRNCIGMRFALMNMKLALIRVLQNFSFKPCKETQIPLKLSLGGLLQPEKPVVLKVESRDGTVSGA
CYP2C9, sequence (P11712 whole entry): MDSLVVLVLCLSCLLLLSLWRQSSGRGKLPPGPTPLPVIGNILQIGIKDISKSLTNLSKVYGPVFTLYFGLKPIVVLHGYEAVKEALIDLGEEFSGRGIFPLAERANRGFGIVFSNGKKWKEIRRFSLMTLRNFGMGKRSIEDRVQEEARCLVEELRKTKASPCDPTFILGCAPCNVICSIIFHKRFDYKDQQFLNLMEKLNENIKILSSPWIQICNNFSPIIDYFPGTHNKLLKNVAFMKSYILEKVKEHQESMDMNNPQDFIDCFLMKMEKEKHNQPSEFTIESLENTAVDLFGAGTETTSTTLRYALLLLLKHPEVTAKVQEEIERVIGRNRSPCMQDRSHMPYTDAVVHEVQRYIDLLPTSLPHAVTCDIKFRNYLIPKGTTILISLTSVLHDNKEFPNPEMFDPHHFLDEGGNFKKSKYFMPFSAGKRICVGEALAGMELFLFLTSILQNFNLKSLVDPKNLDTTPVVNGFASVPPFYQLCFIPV
MET, sequence (P08581 25-1390): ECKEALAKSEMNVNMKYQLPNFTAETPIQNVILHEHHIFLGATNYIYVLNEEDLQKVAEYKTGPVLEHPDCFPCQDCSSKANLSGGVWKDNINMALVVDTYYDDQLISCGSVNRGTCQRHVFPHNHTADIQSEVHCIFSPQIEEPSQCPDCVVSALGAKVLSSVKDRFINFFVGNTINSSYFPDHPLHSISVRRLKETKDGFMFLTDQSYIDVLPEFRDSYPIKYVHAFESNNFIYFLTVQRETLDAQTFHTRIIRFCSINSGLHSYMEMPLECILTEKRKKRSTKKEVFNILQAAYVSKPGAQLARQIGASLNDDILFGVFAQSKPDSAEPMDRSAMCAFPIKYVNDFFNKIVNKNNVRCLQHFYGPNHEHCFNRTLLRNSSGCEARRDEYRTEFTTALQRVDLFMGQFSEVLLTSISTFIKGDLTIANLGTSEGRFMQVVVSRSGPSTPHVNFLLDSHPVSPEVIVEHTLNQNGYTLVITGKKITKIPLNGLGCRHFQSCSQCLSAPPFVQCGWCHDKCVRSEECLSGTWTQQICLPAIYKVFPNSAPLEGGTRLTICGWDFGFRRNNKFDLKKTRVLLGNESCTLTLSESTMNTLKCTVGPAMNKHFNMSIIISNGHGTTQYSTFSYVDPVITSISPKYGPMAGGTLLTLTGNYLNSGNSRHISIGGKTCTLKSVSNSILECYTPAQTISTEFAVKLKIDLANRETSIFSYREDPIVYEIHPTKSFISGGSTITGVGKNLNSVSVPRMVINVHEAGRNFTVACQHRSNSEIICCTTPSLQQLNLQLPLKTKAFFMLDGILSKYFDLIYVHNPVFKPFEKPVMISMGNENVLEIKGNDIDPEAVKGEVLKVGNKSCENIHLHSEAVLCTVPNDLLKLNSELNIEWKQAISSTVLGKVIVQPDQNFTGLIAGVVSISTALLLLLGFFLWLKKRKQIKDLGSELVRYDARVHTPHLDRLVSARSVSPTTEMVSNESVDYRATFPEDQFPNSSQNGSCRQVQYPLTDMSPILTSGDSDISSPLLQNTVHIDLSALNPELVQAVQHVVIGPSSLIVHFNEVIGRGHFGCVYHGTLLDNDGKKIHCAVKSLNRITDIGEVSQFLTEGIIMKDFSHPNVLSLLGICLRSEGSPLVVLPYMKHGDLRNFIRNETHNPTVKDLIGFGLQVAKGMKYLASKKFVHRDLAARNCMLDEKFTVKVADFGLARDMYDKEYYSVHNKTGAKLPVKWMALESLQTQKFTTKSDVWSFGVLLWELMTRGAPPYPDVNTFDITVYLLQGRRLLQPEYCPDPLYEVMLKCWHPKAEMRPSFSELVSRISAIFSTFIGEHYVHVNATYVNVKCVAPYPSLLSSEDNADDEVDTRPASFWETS
CYP1A2, sequence (P05177 whole entry): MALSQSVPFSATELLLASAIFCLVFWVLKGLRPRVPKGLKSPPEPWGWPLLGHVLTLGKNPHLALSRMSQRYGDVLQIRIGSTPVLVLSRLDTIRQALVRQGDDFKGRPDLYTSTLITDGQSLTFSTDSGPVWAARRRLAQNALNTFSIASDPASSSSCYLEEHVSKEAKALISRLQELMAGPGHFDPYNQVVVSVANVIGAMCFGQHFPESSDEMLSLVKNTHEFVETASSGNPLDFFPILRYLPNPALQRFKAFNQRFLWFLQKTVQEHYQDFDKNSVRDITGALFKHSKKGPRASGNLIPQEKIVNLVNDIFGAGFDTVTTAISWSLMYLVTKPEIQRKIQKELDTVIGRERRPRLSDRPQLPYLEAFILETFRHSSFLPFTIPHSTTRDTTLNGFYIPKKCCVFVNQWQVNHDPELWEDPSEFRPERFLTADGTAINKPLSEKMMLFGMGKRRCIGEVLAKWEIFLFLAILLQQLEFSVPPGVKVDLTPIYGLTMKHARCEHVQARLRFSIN
CYP 2B6, sequence (P20813 whole entry): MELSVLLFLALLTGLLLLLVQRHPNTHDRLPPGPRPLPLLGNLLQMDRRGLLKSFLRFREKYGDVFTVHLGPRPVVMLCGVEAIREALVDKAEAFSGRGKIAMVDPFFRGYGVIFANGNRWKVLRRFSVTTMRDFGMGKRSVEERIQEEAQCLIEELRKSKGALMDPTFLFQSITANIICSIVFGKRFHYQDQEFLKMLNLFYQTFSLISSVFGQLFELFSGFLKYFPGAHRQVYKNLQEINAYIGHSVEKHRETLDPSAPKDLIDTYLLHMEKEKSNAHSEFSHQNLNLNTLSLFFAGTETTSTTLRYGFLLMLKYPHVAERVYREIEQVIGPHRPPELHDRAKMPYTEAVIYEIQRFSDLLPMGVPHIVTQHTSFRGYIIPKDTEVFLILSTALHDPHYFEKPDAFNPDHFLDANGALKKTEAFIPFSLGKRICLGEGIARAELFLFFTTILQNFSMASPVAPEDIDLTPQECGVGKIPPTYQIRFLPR
CYP2C19, sequence (P33261 whole entry): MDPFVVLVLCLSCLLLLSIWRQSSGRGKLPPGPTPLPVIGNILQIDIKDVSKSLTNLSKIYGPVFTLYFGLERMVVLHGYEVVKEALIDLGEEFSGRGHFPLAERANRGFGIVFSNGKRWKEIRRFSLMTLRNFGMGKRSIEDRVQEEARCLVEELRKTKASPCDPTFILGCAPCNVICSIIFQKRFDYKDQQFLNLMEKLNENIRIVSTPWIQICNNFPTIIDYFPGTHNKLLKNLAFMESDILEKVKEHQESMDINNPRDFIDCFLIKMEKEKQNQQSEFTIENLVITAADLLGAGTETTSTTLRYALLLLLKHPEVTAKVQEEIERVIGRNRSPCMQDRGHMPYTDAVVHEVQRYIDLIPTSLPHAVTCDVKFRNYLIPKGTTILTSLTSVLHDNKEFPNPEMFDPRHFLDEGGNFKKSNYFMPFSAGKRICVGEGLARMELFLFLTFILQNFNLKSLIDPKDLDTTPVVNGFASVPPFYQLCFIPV
CYP2C8, sequence (P10632 whole entry): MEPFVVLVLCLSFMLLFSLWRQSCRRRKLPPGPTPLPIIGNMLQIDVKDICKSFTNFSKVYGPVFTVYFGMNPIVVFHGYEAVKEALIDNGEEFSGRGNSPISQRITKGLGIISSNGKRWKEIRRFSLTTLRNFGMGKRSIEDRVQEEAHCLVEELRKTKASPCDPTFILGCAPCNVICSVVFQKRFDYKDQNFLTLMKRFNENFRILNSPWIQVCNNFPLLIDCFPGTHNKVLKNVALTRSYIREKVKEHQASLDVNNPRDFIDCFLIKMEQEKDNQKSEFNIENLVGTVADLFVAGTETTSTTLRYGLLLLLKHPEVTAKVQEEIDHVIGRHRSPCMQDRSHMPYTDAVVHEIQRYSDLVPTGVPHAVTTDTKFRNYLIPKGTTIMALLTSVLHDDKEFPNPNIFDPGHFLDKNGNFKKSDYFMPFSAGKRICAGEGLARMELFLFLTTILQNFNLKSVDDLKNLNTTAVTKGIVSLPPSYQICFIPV

Compound: CNC(=O)c1cc2c(Oc3ccc(NC(=O)C4(C(=O)Nc5ccc(F)cc5)CC4)cc3)ccnc2cc1OC [Compound 1, 1-N′-(4-Fluorophenvl)-1-N-[4-[7-methoxy-6-(methylcarbamovl)quinolin-4-yl]oxyphenyl]cyclopropane-1,1-dicarboxamide]
- CLint [1]: 0.315 mL/min/g liver
- mean accumulation ratio for AUC0-24 ([2]; 18 mg/kg dose level): 0.874
- mean accumulation ratio for Cmax ([2]; 18 mg/kg dose level): 0.891
- mean accumulation ratio for AUC0-24 ([2]; 2 and 6 mg/kg dose levels): 1.57-3.38
- mean accumulation ratio for Cmax ([2]; 2 and 6 mg/kg dose levels): 1.67-4.75
- Sex differences in mean Cmax and AUC0-24 values ([2]; 28-day study): less than 2 fold
- half-life ([2]; both sexes, dog, plasma, Day 1): 4.57 to 6.29 h
- half-life ([2]; both sexes, dog, plasma, Day 28): 3.96 to 5.23 h
- Tmax ([2]; both sexes, dog, plasma, oral gavage 2, 6 and 18 mg/kg, Days 1 and 28, read-out: median Tmax): 2 h
- pIC50 (MET): 7.82
- histopathologic changes in female reproductive tract tissues ([3]; 10 mg/kg/day for 4 weeks, appeared reversible): increased size and number of regressing corpora lutea in ovarian tissue and a higher frequency of dilated uteri
- hepatobiliary histologic findings ([3]; 10 mg/kg/day, 4 weeks, minimal to mild severity, fully reversible after 14-day recovery): bile duct inflammation and hyperplasia, and individual hepatocyte necrosis
- increase in ALT [3, 7]: < 5 fold
- increase in AST [3, 7]: < 2 fold
- reversibility of adverse findings ([3]; 14-day non-treatment recovery period): partially or completely reversible
- highest non-severely toxic dose (HNSTD) ([3]; GLP 4-week toxicity study, highest dose tested): 10 mg/kg qd
- ophthalmic findings ([3]; daily for 4 weeks): No adverse ophthalmic findings
- histomorphologic findings in bone and teeth ([3]; daily for 4 weeks, >3 mg/kg/day, persisted but less severe after 2-week recovery): increased physeal thickness of the femur and degeneration of the tooth dentin and enamel
- nasal turbinate histologic findings ([3]; recovery cohort, 10 mg/kg/day 4 weeks + 14-day non-treatment, females minimal-moderate, males slight-moderate): proliferation of nasal turbinate bone
- bone marrow microscopic findings ([3]; repeat-dose): minimal severity decreased bone marrow cellularity
- cholesterol and triglyceride levels ([3]; repeat-dose): Increased cholesterol and triglyceride levels
- reticulocytes ([3]; repeat-dose): transient decreases in reticulocytes
- spleen findings ([3]; repeat-dose): Extramedullary hematopoiesis (minimal) and increased lymphocytes (minimal-slight)
- CLint [4]: 0.601 mL/min/g liver
- role in the metabolism of Compound 1 (CYP2D6 [5]): only a minor role
- pKi (CYP2C19): 5.87
- pKi (CYP2C8): 5.90
- pKi (CYP2C9): 5.15
- pIC50 (CYP 2B6): < 4.48
- pIC50 (CYP2D6 [6]): < 4.48
- pIC50 (CYP1A2): < 4.48
- pKi (CYP3A4): 4.60
- time-dependent inhibition (CYP3A4; testosterone as probe substrate): time-dependent inhibitor
